Reference: the NIST ThermoML archive (doi:10.1007/s10765-014-1718-x)
Numbers after ± are expanded uncertainties.

Conditions: for thermal diffusivity: Optical interferometry; for speed of sound: Light diffraction method

CCCCC [pentane]
Conditions | speed of sound [m/s] | thermal diffusivity [m2/s]
306.16 K, Liquid | – | 7.18e-08 ± 3.7e-09
308.14 K, Liquid | 963.73 ± 5 | –
318.45 K, Liquid | 915.77 ± 4.7 | –
323.16 K, Liquid | – | 6.84e-08 ± 3.6e-09
328.23 K, Liquid | 866.06 ± 4.5 | –
338.02 K, Liquid | 815.68 ± 4.2 | –
338.39 K, Liquid | – | 6.42e-08 ± 3.3e-09
348.32 K, Liquid | 765.39 ± 4 | –
348.68 K, Gas | 189.16 ± 1.2 | –
353.16 K, Liquid | – | 6.19e-08 ± 3.2e-09
358.13 K, Liquid | – | 6.07e-08 ± 3.2e-09
358.22 K, Gas | 187.01 ± 1.2 | –
359.03 K, Liquid | 715.2 ± 3.7 | –
362.37 K, Liquid | – | 5.91e-08 ± 3.1e-09
367.9 K, Gas | 185.11 ± 1.2 | –
368.18 K, Liquid | – | 5.79e-08 ± 3e-09
368.31 K, Liquid | 667.88 ± 3.5 | –
373.47 K, Liquid | – | 5.74e-08 ± 3e-09
377.79 K, Gas | 183.06 ± 1.1 | –
378.2 K, Liquid | – | 5.69e-08 ± 3e-09
379.04 K, Liquid | 618.28 ± 3.2 | –
383.42 K, Liquid | – | 5.53e-08 ± 2.9e-09
388.15 K, Liquid | – | 5.45e-08 ± 2.8e-09
388.18 K, Gas | 178.8 ± 1.1 | –
388.52 K, Liquid | 571.45 ± 3 | –
393.32 K, Liquid | – | 5.4e-08 ± 2.8e-09
396.29 K, Liquid | – | 5.35e-08 ± 2.8e-09
398.16 K, Liquid | 529.46 ± 2.8 | –
398.34 K, Gas | 174.99 ± 1.1 | –
399.16 K, Liquid | – | 5.24e-08 ± 2.7e-09
403.33 K, Liquid | – | 5.16e-08 ± 2.7e-09
406.96 K, Liquid | 483.6 ± 2.6 | –
408.14 K, Gas | 169.99 ± 1.1 | –
408.63 K, Liquid | – | 5.12e-08 ± 2.7e-09
413.33 K, Liquid | – | 5.01e-08 ± 2.6e-09
417.94 K, Liquid | 428.66 ± 2.3 | –
418.17 K, Gas | 162.61 ± 1.1 | –
418.39 K, Liquid | – | 4.93e-08 ± 2.6e-09
423.55 K, Gas | – | 2.31e-07 ± 6.9e-09
423.61 K, Liquid | – | 4.84e-08 ± 2.5e-09
428.12 K, Gas | – | 2.14e-07 ± 6.4e-09
428.17 K, Gas | 155.41 ± 1 | –
428.17 K, Liquid | – | 4.69e-08 ± 2.4e-09
428.38 K, Liquid | 382.43 ± 2.1 | –
433.15 K, Gas | – | 1.92e-07 ± 5.8e-09
433.19 K, Gas | 150.86 ± 1 | –
433.29 K, Liquid | – | 4.58e-08 ± 2.4e-09
436.13 K, Gas | – | 1.77e-07 ± 5.3e-09
436.19 K, Liquid | – | 4.49e-08 ± 2.3e-09
438.21 K, Gas | 146.71 ± 1 | –
438.23 K, Liquid | 327.33 ± 1.8 | –
438.87 K, Gas | – | 1.64e-07 ± 4.9e-09
439.21 K, Liquid | – | 4.43e-08 ± 2.3e-09
442.09 K, Gas | – | 1.49e-07 ± 4.5e-09
442.35 K, Liquid | – | 4.38e-08 ± 2.3e-09
443.15 K, Gas | 140.85 ± 0.98 | –
445.16 K, Liquid | – | 4.34e-08 ± 2.3e-09
445.19 K, Gas | – | 1.35e-07 ± 4.1e-09
447.95 K, Gas | 136.18 ± 0.96 | –
448.08 K, Liquid | – | 4.2e-08 ± 2.2e-09
448.25 K, Gas | – | 1.2e-07 ± 3.6e-09
448.62 K, Liquid | 267.2 ± 1.5 | –
451.23 K, Gas | – | 1.08e-07 ± 3.2e-09
451.38 K, Liquid | – | 4.08e-08 ± 2.1e-09
453.26 K, Gas | 130.15 ± 0.93 | –
454.03 K, Gas | – | 9.78e-08 ± 2.9e-09
455.2 K, Liquid | – | 3.84e-08 ± 2e-09
457.04 K, Gas | – | 8.48e-08 ± 2.5e-09
457.87 K, Liquid | 209.66 ± 1.3 | –
458.28 K, Gas | 123.99 ± 0.91 | –
458.4 K, Liquid | – | 3.55e-08 ± 1.8e-09
460.05 K, Gas | – | 7.23e-08 ± 2.2e-09
460.1 K, Liquid | – | 3.37e-08 ± 1.8e-09
462.08 K, Gas | – | 5.64e-08 ± 1.7e-09
463.16 K, Gas | 116.39 ± 0.88 | –
463.27 K, Liquid | 170.65 ± 1.1 | –
463.41 K, Liquid | – | 3.04e-08 ± 1.6e-09
464.04 K, Gas | – | 4.16e-08 ± 1.2e-09
466.12 K, Gas | – | 3.45e-08 ± 1e-09
466.14 K, Liquid | 145.22 ± 1 | –
466.37 K, Liquid | – | 2.59e-08 ± 1.3e-09
469.33 K, Liquid | 111.31 ± 0.89 | –
